In PMC7390679 (Bioorganic chemistry, 2020):
pEC50: −log10 of the molar value. Counter-ions that a name gives are not always drawn. Like-named read-outs stand apart in the source and are kept apart here.

Tests used:
[1] = tested on: EV-A71 Tainan/4643/98; assay: CPE antiviral assay, EV-A71 Tainan/4643/98 in RD cells; type: cell-based; settings: read-out: EC50 against EV-A71 Tainan
[2] = tested on: CVB3; assay: CPE antiviral assay, CVB3 in Vero C1008 cells; type: cell-based
[3] = tested on: Vero C1008 cells; assay: Cytotoxicity in Vero C1008 cells, neutral red method; type: cell-based; settings: read-out: CC50 in Vero C1008 cells
[4] = tested on: RD cells; assay: Cytotoxicity in RD cells, neutral red method; settings: read-out: CC50 in RD cells, mean ± SD of three repeats
[5] = biological target: CVB3 2C protein (Coxsackievirus B3, UniProt P03313); assay: Differential scanning fluorimetry; type: binding; settings: 1 mM compound, 4.5 μM 2C, DSF
Sequence of CVB3 2C protein (P03313 1101-1429): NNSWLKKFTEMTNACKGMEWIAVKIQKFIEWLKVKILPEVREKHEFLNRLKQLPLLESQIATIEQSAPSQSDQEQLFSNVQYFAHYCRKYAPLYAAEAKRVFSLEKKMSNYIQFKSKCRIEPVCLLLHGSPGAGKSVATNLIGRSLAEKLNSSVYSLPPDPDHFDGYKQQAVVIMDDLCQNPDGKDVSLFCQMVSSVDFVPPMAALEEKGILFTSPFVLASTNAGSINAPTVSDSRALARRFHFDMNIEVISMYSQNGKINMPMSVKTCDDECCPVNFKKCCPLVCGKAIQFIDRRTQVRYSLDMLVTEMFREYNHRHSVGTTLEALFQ

[6] = Enterovirus B, CVB3, Vero C1008, read-out: EC50 against CVB3
[7] = read-out: EC50 against CVB3, Vero C1008 cells, CPE assay

Structure (SMILES)	pEC50 ([1]; Enterovirus A, EVA71, RD)	pEC50 [2, 6]	CC50 [3] [µM]	pEC50 ([1]; RD cells, CPE assay)	pEC50 [2, 7]	CC50 [4] [µM]	Tm shift of CVB3 2C protein [5] [°C]
CCCCOc1cc(C(=O)NCCN(CC)CC)c2ccccc2n1 [dibucaine]	< 5.00	5.89	–	–	–	–	–
CNCCC(Oc1ccc(C(F)(F)F)cc1)c1ccccc1 (stereo not drawn) [fluoxetine]	–	–	11	–	–	–	–
COc1ccc(CC(C)NCC(O)c2ccc(O)c(NC=O)c2)cc1 (stereo not drawn) [formoterol]	< 4.00	5.00	> 300	–	–	–	–
N=C(N)N [guanidine]	–	–	> 3000	3.04	3.65	> 1000	1.77
Cc1ccc2c(c1)c1c3n2CCNC3CCC1 (stereo not drawn) [pirlindole mesylate]	–	–	40.5	< 4.70	5.44	19	–
